Tests used:
Experiment in all cases: Enzymatic Assay
Conditions in all cases: pH 6.5; 30 °C
[1] = target: T1, Tyrosine-protein phosphatase non-receptor type 1 (Homo sapiens, UniProt P18031)
T1 sequence (P18031 whole entry): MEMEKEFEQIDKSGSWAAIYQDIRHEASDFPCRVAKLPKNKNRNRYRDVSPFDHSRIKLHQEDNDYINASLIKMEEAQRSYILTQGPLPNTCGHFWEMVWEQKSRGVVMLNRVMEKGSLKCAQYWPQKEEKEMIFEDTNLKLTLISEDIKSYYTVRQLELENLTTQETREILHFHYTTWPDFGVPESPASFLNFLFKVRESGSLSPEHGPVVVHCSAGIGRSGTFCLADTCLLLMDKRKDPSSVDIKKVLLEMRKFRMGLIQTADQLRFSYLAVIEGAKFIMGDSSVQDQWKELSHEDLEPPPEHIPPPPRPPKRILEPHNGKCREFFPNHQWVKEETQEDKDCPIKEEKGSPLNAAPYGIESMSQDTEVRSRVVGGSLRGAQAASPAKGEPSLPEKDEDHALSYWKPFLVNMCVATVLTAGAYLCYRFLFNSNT
Description: Briefly, the enzymatic activity of the PTP1B catalytic domain was determinedat 30°C by monitoring the hydrolysis of pNPP. […] Assays were performed in a total volume of 100 μL containing 50 mmol/L 3-[N-morpholino]propane-sulfonic acid (MOPs), pH = 6.5, 2 mmol/L pNPP, and 30 nmol/L recombinant PTP1B, as well as the indicated concentrations of the inhibitor.

[2] = target: T2, Tyrosine-protein phosphatase non-receptor type 2 (Homo sapiens, UniProt P17706)
T2 sequence (P17706 whole entry): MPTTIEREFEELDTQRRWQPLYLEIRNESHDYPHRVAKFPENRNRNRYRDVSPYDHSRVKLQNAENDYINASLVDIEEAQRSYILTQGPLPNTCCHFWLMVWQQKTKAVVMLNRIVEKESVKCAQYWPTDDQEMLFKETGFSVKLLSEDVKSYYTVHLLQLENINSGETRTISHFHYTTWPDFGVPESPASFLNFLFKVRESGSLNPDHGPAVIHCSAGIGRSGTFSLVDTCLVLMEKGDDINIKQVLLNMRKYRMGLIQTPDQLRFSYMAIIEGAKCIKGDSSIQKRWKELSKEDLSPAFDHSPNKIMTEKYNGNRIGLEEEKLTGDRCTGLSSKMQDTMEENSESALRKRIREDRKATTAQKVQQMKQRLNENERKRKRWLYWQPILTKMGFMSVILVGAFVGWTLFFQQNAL

[3] = target: T3, M-phase inducer phosphatase 2 (Homo sapiens, UniProt P30305)
T3 sequence (P30305 whole entry): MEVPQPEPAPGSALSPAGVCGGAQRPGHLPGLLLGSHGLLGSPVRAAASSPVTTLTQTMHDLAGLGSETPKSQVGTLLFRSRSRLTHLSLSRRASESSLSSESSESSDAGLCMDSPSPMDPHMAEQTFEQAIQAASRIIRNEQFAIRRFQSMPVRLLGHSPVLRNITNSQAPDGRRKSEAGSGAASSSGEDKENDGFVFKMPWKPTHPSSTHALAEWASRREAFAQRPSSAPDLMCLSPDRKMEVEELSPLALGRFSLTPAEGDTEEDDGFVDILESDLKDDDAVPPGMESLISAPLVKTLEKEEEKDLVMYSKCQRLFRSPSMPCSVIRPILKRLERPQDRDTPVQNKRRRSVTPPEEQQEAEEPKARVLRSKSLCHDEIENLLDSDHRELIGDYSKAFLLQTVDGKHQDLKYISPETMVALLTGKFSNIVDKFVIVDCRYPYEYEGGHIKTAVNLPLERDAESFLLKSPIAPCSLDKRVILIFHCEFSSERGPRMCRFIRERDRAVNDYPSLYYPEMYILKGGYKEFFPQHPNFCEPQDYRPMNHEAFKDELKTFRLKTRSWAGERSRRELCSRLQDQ

O=C1CC(c2ccc(Cl)cc2Cl)Oc2cc(O)cc(O)c21 (stereo not given) [PTP inhibitor, 4g]
IC50 [1]: 2.4 µM

O=C1CC(c2ccc(Br)cc2)Oc2cc(O)cc(O)c21 (stereo not given) [PTP inhibitor, 4j]
IC50 [1]: 3.48 µM

O=C1CC(c2cccc(C(F)(F)F)c2)Oc2cc(O)cc(O)c21 (stereo not given) [PTP inhibitor, 4k]
IC50 [2]: 8.82 µM | IC50 [3]: 8.54 µM | IC50 [1]: 2.37 µM

O=C1CC(c2cccc(Br)c2)Oc2cc(O)cc(O)c21 (stereo not given) [PTP inhibitor, 4i]
IC50 [1]: 7.33 µM

O=C1CC(c2ccc(F)cc2)Oc2cc(O)cc(O)c21 (stereo not given) [PTP inhibitor, 4c]
IC50 [1]: 2.66 µM

O=C1CC(c2cccc(F)c2)Oc2cc(O)cc(O)c21 (stereo not given) [PTP inhibitor, 4b]
IC50 [1]: 7.98 µM

O=C1CC(c2ccccc2F)Oc2cc(O)cc(O)c21 (stereo not given) [PTP inhibitor, 4a]
IC50 [1]: 9.06 µM

Cc1ccc(C2CC(=O)c3c(O)cc(O)cc3O2)cc1 (stereo not given) [PTP inhibitor, 4m]
IC50 [1]: 14.1 µM

O=C1CC(c2ccccc2Cl)Oc2cc(O)cc(O)c21 (stereo not given) [PTP inhibitor, 4d]
IC50 [1]: 10.2 µM

O=C1CC(c2ccccc2Br)Oc2cc(O)cc(O)c21 (stereo not given) [PTP inhibitor, 4h]
IC50 [1]: 4.9 µM

O=C1CC(c2ccccc2)Oc2cc(O)cc(O)c21 (stereo not given) [PTP inhibitor, 4l]
IC50 [1]: 36.7 µM

O=C1CC(c2cccc(Cl)c2)Oc2cc(O)cc(O)c21 (stereo not given) [PTP inhibitor, 4e]
IC50 [1]: 4.18 µM

O=C1CC(c2ccc(Cl)cc2)Oc2cc(O)cc(O)c21 (stereo not given) [PTP inhibitor, 4f]
IC50 [1]: 3.6 µM

From BindingDB's records for doi:10.3109/14756366.2012.723206 (Yanbian University College of Pharmacy, 2013)
